# Source: patent US20210355104A1, “ADENOSINE RECEPTOR BINDING COMPOUNDS” (Nikang Therapeuticsm Inc., priority 2018, published 2021)
# “And” between values parts separate entries of the source, which are not always exact repeats. Identical values can stand only once.
# Biological target: Adenosine A2A receptor (Homo sapiens, UniProt P29274)
# Test: cAMP assay in 293A cells stably expressing the adenosine A2A receptor (CGS21680 stimulation, HTRF)
# Assay type: cell-based
# Design: expressed in transfected cells; host or cells: 293A cells (Invitrogen, Cat# R705-07) infected with A2A-expressing lentivirus (custom packaged by Biosettia), puromycin selected
# Conditions: 293A-A2AR cells, 0.1% BSA, 1 uM CGS; read-out: cAMP (nM) 0.1% BSA, 1 uM CGS
# Method: A 293A cell line (Invitrogen, Cat# R705-07) stably expressing the adenosine A2A receptor was generated in house. Briefly, 293A cells were seeded in 6-well plate and infected with A2A expressing lentivirus (custom packaged by Biosettia) and selected with puromycin (1 ug/ml). Cells survived selection were confirmed for A2A expression by RT-qPCR (RT Reagent: High-Capacity cDNA Reverse Transcription Kit, Applied Biosystems/Thermo Fisher Cat# 4368814, qPCR reagent: SYBR™ Green Master Mix, Applied Biosystems/Thermo Fisher Cat# 4309155). The cells were maintained in DMEM/F12 medium containing 10% FBS, 100 units/ml Penicillin, 100 μg/ml Streptomycin, and 1 μg/ml puromycin at 37° C., 5% CO2. 293A-A2AR cells were harvested on the day of assay and resuspended at 0.6 million cells/ml in DMEM/F12 with 0.1% BSA and 30 U/ml denosine deaminase(Roche, Cat #: 10102121001). Serial dilutions of compounds were prepared in DMEM/F12 with 0.1% BSA to a DMSO concentration of 0.6%. After 4 μl of compound dilutions were added, 4 μl suspended cells were dispensed into low-volume white 384-well plates (Greiner Bio-One). […] The assay plate was then incubated at room temperature for 30 min. 3 μl of d2 conjugated cAMP and 3 μl cryptate conjugated anti-cAMP antibody were then added. D2 conjugated cAMP and cryptate conjugated anti-cAMP antibody (Cisbio, Cat #: 62AM6PEC) were both prepared in cell lysis buffer according to the manufacturer's instruction. After 1 h incubation at room temperature, plates were read in CIARIOstar plate reader (BMG Labtech) using the HTRF detection mode.
# Chain of Adenosine A2A receptor (P29274 whole entry): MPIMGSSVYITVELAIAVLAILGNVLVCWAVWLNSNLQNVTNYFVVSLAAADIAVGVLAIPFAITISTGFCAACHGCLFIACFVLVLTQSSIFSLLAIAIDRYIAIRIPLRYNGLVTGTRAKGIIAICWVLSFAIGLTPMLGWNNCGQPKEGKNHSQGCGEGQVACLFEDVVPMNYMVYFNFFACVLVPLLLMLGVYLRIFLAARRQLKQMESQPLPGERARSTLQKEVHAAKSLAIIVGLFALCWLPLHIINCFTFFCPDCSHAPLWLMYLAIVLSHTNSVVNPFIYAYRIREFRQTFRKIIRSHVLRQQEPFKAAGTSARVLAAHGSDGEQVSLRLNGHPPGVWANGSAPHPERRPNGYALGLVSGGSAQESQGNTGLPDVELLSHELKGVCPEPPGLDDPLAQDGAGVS
row,SMILES,IC50
1,"CCc1nnn(CC)c1COc1nc(N)nc(-c2cccc(C#N)c2C)c1-c1cc(C)nc(C(F)F)c1 [Example 255, 3-(2-amino-6-((1,4-diethyl-1H-1,2,3-triazol-5-yl)methoxy)-5-(2-(difluoromethyl)-6-methylpyridin-4-yl)pyrimidin-4-yl)-2-methylbenzonitrile]",> 25000 nM
2,"CCc1c(COc2nc(N)nc(-c3cccc(C#N)c3C)c2-c2cc(C)nc(C(F)F)c2)nnn1CC [Example 256, 3-(2-amino-6-((1,5-diethyl-1H-1,2,3-triazol-4-yl)methoxy)-5-(2-(difluoromethyl)-6-methylpyridin-4-yl)pyrimidin-4-yl)-2-methylbenzonitrile]",2910 nM
3,"Cc1cc(-c2c(OCc3cccc(N4CCC(C)(O)CC4)n3)nc(N)nc2-c2ccc(F)cc2)cc(C(F)F)n1 [Example 259, 1-(6-(((2-amino-5-(2-(difluoromethyl)-6-methylpyridin-4-yl)-6-(4-fluorophenyl)pyrimidin-4-yl)oxy)methyl)pyridin-2-yl)-4-methylpiperidin-4-ol]",> 25000 nM
4,"Cc1cc(-c2c(OCc3nnn[nH]3)nc(N)nc2-c2ccc(F)cc2)cc(C(F)F)n1 [Example 269, 4-((1H-tetrazol-5-yl)methoxy)-5-(2-(difluoromethyl)-6-methylpyridin-4-yl)-6-(4-fluorophenyl)pyrimidin-2-amine]",> 25000 nM
5,"Cc1cc(-c2c(OCc3cccc(C(C)O)n3)nc(N)nc2-c2ccc(F)cc2)cc(C(F)F)n1 (centres unmarked) [Example 272, 1-(6-(((2-amino-5-(2-(difluoromethyl)-6-methylpyridin-4-yl)-6-(4-fluorophenyl)pyrimidin-4-yl)oxy)methyl)pyridin-2-yl)ethan-1-ol]",88 nM and 161 nM
6,"Cc1cc(-c2c(OCc3cccc(C(=O)O)n3)nc(N)nc2-c2ccc(F)cc2)cc(C(F)F)n1 [Example 274, 6-(((2-amino-5-(2-(difluoromethyl)-6-methylpyridin-4-yl)-6-(4-fluorophenyl)pyrimidin-4-yl)oxy)methyl)picolinic acid]",3210 nM
7,"Cc1cc(-c2c(OC[C@H]3CC[C@@H](C(=O)O)CC3)nc(N)nc2-c2ccc(F)cc2)cc(C(F)F)n1 [Example 278, (1,4-cis)-4-(((2-amino-5-(2-(difluoromethyl)-6-methylpyridin-4-yl)-6-(4-fluorophenyl)pyrimidin-4-yl)oxy)methyl)cyclohexane-1-carboxylic acid]",19900 nM
8,"Cc1cc(-c2c(OC[C@H]3CC[C@H](C(=O)O)CC3)nc(N)nc2-c2ccc(F)cc2)cc(C(F)F)n1 [Example 279, (1,4-trans)-4-(((2-amino-5-(2-(difluoromethyl)-6-methylpyridin-4-yl)-6-(4-fluorophenyl)pyrimidin-4-yl)oxy)methyl)cyclohexane-1-carboxylic acid]",> 25000 nM
9,"Cc1cc(-c2c(OCc3ccn(C)c(=O)c3)nc(N)nc2-c2ccc(F)cc2)cc(C(F)F)n1 [Example 280, 4-(((2-amino-5-(2-(difluoromethyl)-6-methylpyridin-4-yl)-6-(4-fluorophenyl)pyrimidin-4-yl)oxy)methyl)-1-methylpyridin-2(1H)-one]",5800 nM
10,"Cc1cc(-c2c(OCc3nnn(CC(C)(C)O)n3)nc(N)nc2-c2ccc(F)cc2)cc(C(F)F)n1 [Example 291, 1-(5-(((2-amino-5-(2-(difluoromethyl)-6-methylpyridin-4-yl)-6-(4-fluorophenyl)pyrimidin-4-yl)oxy)methyl)-2H-tetrazol-2-yl)-2-methylpropan-2-ol]",5490 nM
11,"Cc1cc(-c2c(OCc3cccc(N4CC(C(=O)O)C4)n3)nc(N)nc2-c2ccc(F)cc2)cc(C(F)F)n1 [Example 293, 1-(6-(((2-amino-5-(2-(difluoromethyl)-6-methylpyridin-4-yl)-6-(4-fluorophenyl)pyrimidin-4-yl)oxy)methyl)pyridin-2-yl)azetidine-3-carboxylic acid]",4350 nM
12,"Cc1cc(-c2c(OCc3cccc(N4CCC[C@@H]4C(=O)O)n3)nc(N)nc2-c2ccc(F)cc2)cc(C(F)F)n1 [Example 294, (6-(((2-amino-5-(2-(difluoromethyl)-6-methylpyridin-4-yl)-6-(4-fluorophenyl)pyrimidin-4-yl)oxy)methyl)pyridin-2-yl)-D-proline]",19700 nM

# More lines, now with the values ahead:
row,IC50,SMILES
1,2390 nM,"Cc1cc(-c2c(OCc3ccn(CC(C)(C)O)n3)nc(N)nc2-c2ccc(F)cc2)cc(C(F)F)n1 [Example 258, 1-(3-(((2-amino-5-(2-(difluoromethyl)-6-methylpyridin-4-yl)-6-(4-fluorophenyl)pyrimidin-4-yl)oxy)methyl)-1H-pyrazol-1-yl)-2-methylpropan-2-ol]"
2,1360 nM,"Cc1cc(-c2c(OCc3cccc(N4CC(C)(O)C4)n3)nc(N)nc2-c2ccc(F)cc2)cc(C(F)F)n1 [Example 260, 1-(6-(((2-amino-5-(2-(difluoromethyl)-6-methylpyridin-4-yl)-6-(4-fluorophenyl)pyrimidin-4-yl)oxy)methyl)pyridin-2-yl)-3-methylazetidin-3-ol]"
3,2190 nM,"Cc1cc(-c2c(OCc3cc(C(C)(C)C#N)ccn3)nc(N)nc2-c2cccc(C#N)c2C)cc(C(F)F)n1 [Example 261, 3-(2-amino-6-((4-(2-cyanopropan-2-yl)pyridin-2-yl)methoxy)-5-(2-(difluoromethyl)-6-methylpyridin-4-yl)pyrimidin-4-yl)-2-methylbenzonitrile]"
4,1660 nM,"Cc1cc(-c2c(OCc3cnccn3)nc(N)nc2-c2ccc(F)cc2)cc(C(F)F)n1 [Example 273, 5-(2-(difluoromethyl)-6-methylpyridin-4-yl)-4-(4-fluorophenyl)-6-(pyrazin-2-ylmethoxy)pyrimidin-2-amine]"
5,321 nM,"Cc1cc(-c2c(OCc3cccc(C4(C#N)CCOCC4)n3)nc(N)nc2-c2ccc(F)cc2)cc(C(F)F)n1 [Example 275, 4-(6-(((2-amino-5-(2-(difluoromethyl)-6-methylpyridin-4-yl)-6-(4-fluorophenyl)pyrimidin-4-yl)oxy)methyl)pyridin-2-yl)tetrahydro-2H-pyran-4-carbonitrile]"
6,455 nM,"Cc1cc(-c2c(OCc3ccnc(C(C)(C)C#N)c3)nc(N)nc2-c2ccc(F)cc2)cc(C(F)F)n1 [Example 277, 2-(4-(((2-amino-5-(2-(difluoromethyl)-6-methylpyridin-4-yl)-6-(4-fluorophenyl)pyrimidin-4-yl)oxy)methyl)pyridin-2-yl)-2-methylpropanenitrile]"
7,609 nM,"COCC(O)c1cccc(COc2nc(N)nc(-c3ccc(F)cc3)c2-c2cc(C)nc(C(F)F)c2)n1 (centres unmarked) [Example 281, 1-(6-(((2-amino-5-(2-(difluoromethyl)-6-methylpyridin-4-yl)-6-(4-fluorophenyl)pyrimidin-4-yl)oxy)methyl)pyridin-2-yl)-2-methoxyethan-1-ol]"
8,1170 nM,"Cc1cc(-c2c(OCc3cccc(N4CCCC4)n3)nc(N)nc2-c2ccc(F)cc2)cc(C(F)F)n1 [Example 283, 5-(2-(difluoromethyl)-6-methylpyridin-4-yl)-4-(4-fluorophenyl)-6-((6-(pyrrolidin-1-yl)pyridin-2-yl)methoxy)pyrimidin-2-amine]"
9,1800 nM,"Cc1cc(-c2c(OCc3ccncc3)nc(N)nc2-c2ccc(F)cc2)cc(C(F)F)n1 [Example 286, 5-(2-(difluoromethyl)-6-methylpyridin-4-yl)-4-(4-fluorophenyl)-6-(pyridin-4-ylmethoxy)pyrimidin-2-amine]"
10,835 nM,"Cc1cc(-c2c(OCc3ccnc(C(C)(C)O)c3)nc(N)nc2-c2ccc(F)cc2)cc(C(F)F)n1 [Example 287, 2-(4-(((2-amino-5-(2-(difluoromethyl)-6-methylpyridin-4-yl)-6-(4-fluorophenyl)pyrimidin-4-yl)oxy)methyl)pyridin-2-yl)propan-2-ol]"
11,2390 nM,"CCc1nn(C[C@@H](O)CO)nc1COc1nc(N)nc(-c2ccc(F)cc2)c1-c1cc(C)nc(C(F)F)c1 [Example 288, (R)-3-(4-(((2-amino-5-(2-(difluoromethyl)-6-methylpyridin-4-yl)-6-(4-fluorophenyl)pyrimidin-4-yl)oxy)methyl)-5-ethyl-2H-1,2,3-triazol-2-yl)propane-1,2-diol]"
12,2090 nM,"CCc1c(COc2nc(N)nc(-c3ccc(F)cc3)c2-c2cc(C)nc(C(F)F)c2)nnn1C[C@@H](O)CO [Example 289, (R)-3-(4-(((2-amino-5-(2-(difluoromethyl)-6-methylpyridin-4-yl)-6-(4-fluorophenyl)pyrimidin-4-yl)oxy)methyl)-5-ethyl-1H-1,2,3-triazol-1-yl)propane-1,2-diol]"
13,1310 nM,CCc1nnn(C[C@@H](O)CO)c1COc1nc(N)nc(-c2ccc(F)cc2)c1-c1cc(C)nc(C(F)F)c1 [Example 290]
14,708 nM,"Cc1cc(-c2c(OCc3nnnn3CC(C)(C)O)nc(N)nc2-c2ccc(F)cc2)cc(C(F)F)n1 [Example 292, 1-(5-(((2-amino-5-(2-(difluoromethyl)-6-methylpyridin-4-yl)-6-(4-fluorophenyl)pyrimidin-4-yl)oxy)methyl)-1H-tetrazol-1-yl)-2-methylpropan-2-ol]"
